Results reported in patent US8188059B2, “Compounds and methods for modulating expression of GCGR” (Isis Pharmaceuticals, Inc., priority 2006, dated 2012).
Strand notation (5' to 3'): a small letter for the sugar, then the base; units joined by * are phosphorothioate-linked, units joined directly phosphodiester-linked; [ ] holds rarer units or linkages, { } end groups; capitals alone tell only the bases. e = 2'-O-(2-methoxyethyl) (MOE); [5mC] = 5-methylcytosine; d = 2'-deoxy (DNA)

Experiments:
monkey GCGR mRNA = experiment: Antisense inhibition of GCGR in primary monkey hepatocytes, 25-200 nM (Example 21, Table 80); type: cell-based; conditions: relative to untreated control cells
Procedure: Additional short antisense compounds targeted to a GCGR nucleic acid were tested for their effects on monkey GCGR mRNA in vitro. Cultured primary monkey hepatocytes were treated as described herein with 25, 50, 100 or 200 nM of short antisense compound. After the treatment period, RNA was isolated from the cells and GCGR mRNA levels were measured by quantitative real-time PCR, as described herein. GCGR mRNA levels were adjusted according to total RNA content as measured by RIBOGREEN®. Results are presented in Table 80 as percent reduction in GCGR mRNA, relative to untreated control cells.

mouse SGLT2 mRNA [1] = experiment: Mouse SGLT2 mRNA levels in kidney, 1-10-1 MOE gapmers, Balb/c mice (Example 14, Table 65); type: in vivo
Procedure: The short antisense compounds were analyzed for their effect on mouse SGLT2 mRNA levels. Data was taken from three experiments in which Male 6-week old Balb/c mice were dosed twice per week for two weeks with 450, 150, or 50 nmol/kg of one of the above 1-10-1 MOE gapmers given by intraperitoneal injection. Mice were sacrificed 48 hours following last administration and evaluated for SGLT2 mRNA levels in kidney. Target levels were determined by RT, real-time PCR as described by other examples herein. PCR results were normalized to an internal ISIS control.

rat SGLT2 mRNA = experiment: Rat SGLT2 mRNA levels in kidney, 1-10-1 gapmers at 250 nmol/kg, Sprague-Dawley rats (Example 14, Table 66); type: in vivo; conditions: for % change in SGLT2 expression relative to saline: 250 nmol/kg i.p. twice per week for three weeks, Sprague-Dawley rats, kidney
Procedure: The effect of the above 1-10-1gapmers (see Table 64 above) on rat SGLT2 mRNA levels. Data are taken from four experiments in which male Sprague-Dawley rats (170-200 g) were dosed twice per week for three weeks with 250 nmol/kg given by intraperitoneal injection. Rats were sacrificed 48 hours following last administration and evaluated for SGLT2 mRNA levels in kidney. Target levels were determined by RT, real-time PCR as described by other examples herein. PCR results were normalized to an internal ISIS control.

mouse SGLT2 mRNA [2] = experiment: Mouse SGLT2 mRNA levels in kidney, additional 1-10-1 and 2-8-2 MOE gapmers, Balb/c mice (Example 15, Table 68); type: in vivo
Procedure: 1-10-1 and 2-8-2 MOE gapmer short antisense compounds were designed to target different regions of the mouse SGLT2 RNA but have complementarity across species. […] All cytidine residues are 5-methylcytidines.
The short antisense compounds were analyzed for their effect on mouse SGLT2 mRNA levels in vivo. Data was taken from three experiments in which male 6-week old Balb/c mice were dosed twice per week for three weeks with 0.5, 0.1, or 0.02 umol/kg of either a 1-10-1 or 2-8-2 MOE gapmer given by intraperitoneal injection. Mice were sacrificed 48 hours following last administration and evaluated for SGLT2 levels in kidney. Target levels were determined by RT, real-time PCR as described by other examples herein. PCR results were normalized to an internal ISIS control.

| Substance | percent reduction in GCGR mRNA (monkey GCGR mRNA; 25 nM) | percent reduction in GCGR mRNA (monkey GCGR mRNA; 50 nM) | percent reduction in GCGR mRNA (monkey GCGR mRNA; 100 nM) | percent reduction in GCGR mRNA (monkey GCGR mRNA; 200 nM) | % change in SGLT2 expression relative to saline (mouse SGLT2 mRNA [1]; 50 nmol/kg i.p. twice per week for two weeks) | % change in SGLT2 expression relative to saline (mouse SGLT2 mRNA [1]; 150 nmol/kg i.p. twice per week for two weeks) | % change in SGLT2 expression relative to saline (mouse SGLT2 mRNA [1]; 450 nmol/kg i.p. twice per week for two weeks) | % change in SGLT2 expression relative to saline (rat SGLT2 mRNA) | % change in SGLT2 expression relative to saline (mouse SGLT2 mRNA [2]; 0.02 umol/kg i.p. twice per week for three weeks) | % change in SGLT2 expression relative to saline (mouse SGLT2 mRNA [2]; 0.1 umol/kg i.p. twice per week for three weeks) | % change in SGLT2 expression relative to saline (mouse SGLT2 mRNA [2]; 0.5 umol/kg i.p. twice per week for three weeks) | expression of SGLT2 in vivo (rat SGLT2 mRNA; rat kidney, 250 nmol/kg twice per week for three weeks) |
| --- | --- | --- | --- | --- | --- | --- | --- | --- | --- | --- | --- | --- |
| 327131 (antisense eA*eT*eG*dT*dT*dG*dG*d[5mC]*d[5mC]*dG*dT*eG*eG*eT) [compound 327131] | 0 | −8 | −36 | −36 | – | – | – | – | – | – | – | – |
| ISIS 379702: targeted to SGLT2 (antisense eG*d[5mC]*dA*d[5mC]*dA*d[5mC]*dA*dG*d[5mC]*dT*dG*e[5mC]) | – | – | – | – | −52.5% | −72.5% | −75% | −25% | −40% | −65% | −70% | – |
| ISIS 381408: SGLT2; 1-10-1 MOE gapmer (antisense TACCGAACACCT; sugars from the 5' end e1 d10 e1, backbone and methylation of C not given here) | – | – | – | – | – | – | – | −5% | – | – | – | Activity of ISIS 381408 has been shown |
